# Active and inactive are the calls of the source.
# Assays:
# [1] = HEp-2 cell cytotoxicity, dose response, cytotoxicity control for RSV inhibitor project, HTS (AID 2410); format: functional; details: human respiratory syncytial virus
# [2] = molecular target: T1, RNA-binding protein pos-1 (Caenorhabditis elegans, UniProt G5EF15); assay: inhibitors of POS-1/mex-3 RNA binding, dose response, biochemical, fluorescence polarization (AID 1964);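 further: purified POS-1 fused to maltose binding protein made in E. coli; potency of compounds blocking POS-1 binding to fluorescent RNA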
# T1 sequence (G5EF15 whole entry): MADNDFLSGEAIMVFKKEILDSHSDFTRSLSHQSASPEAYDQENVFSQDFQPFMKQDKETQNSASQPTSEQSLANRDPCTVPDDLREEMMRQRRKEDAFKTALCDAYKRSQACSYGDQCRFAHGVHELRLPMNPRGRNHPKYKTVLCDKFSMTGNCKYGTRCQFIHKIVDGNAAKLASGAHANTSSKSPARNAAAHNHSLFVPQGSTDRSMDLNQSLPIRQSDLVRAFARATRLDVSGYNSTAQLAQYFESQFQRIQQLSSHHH
# [3] = molecular target: T2, Zinc finger protein mex-5 (Caenorhabditis elegans, UniProt Q9XUB2); assay: MEX-5/TCR-2 RNA interaction inhibitors, dose response, biochemical, C. elegans, fluorescence polarization (AID 1960)
# T2 sequence (Q9XUB2 whole entry): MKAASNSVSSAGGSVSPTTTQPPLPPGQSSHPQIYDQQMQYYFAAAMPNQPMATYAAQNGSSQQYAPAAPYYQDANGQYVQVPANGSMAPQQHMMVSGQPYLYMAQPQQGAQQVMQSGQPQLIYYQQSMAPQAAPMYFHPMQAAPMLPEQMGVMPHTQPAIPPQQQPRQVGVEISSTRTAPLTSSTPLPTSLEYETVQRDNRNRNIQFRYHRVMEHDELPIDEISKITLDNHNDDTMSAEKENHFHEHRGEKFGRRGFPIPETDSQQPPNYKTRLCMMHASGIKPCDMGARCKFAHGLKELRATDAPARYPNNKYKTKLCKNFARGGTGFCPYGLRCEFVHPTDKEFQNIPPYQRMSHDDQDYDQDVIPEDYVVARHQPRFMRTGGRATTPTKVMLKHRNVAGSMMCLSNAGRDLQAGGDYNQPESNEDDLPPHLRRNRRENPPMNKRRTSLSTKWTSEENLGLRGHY
# H4 = assay: Luminescence Cell-Based Dose Response HTS to Identify Activators of 5'UTR Stem-Loop Driven Prion Protein mRNA Translation in H4 Neuroglioblastoma Cells. [Related pubchem assays: 1829 (Project Summary), 1814 (Primary HTS)]; format: functional; details: Homo sapiens
# [4] = Luminescence Cell-Based Dose Response HTS to Identify Activators of Luciferase Translation or Activity in H4 […] Cells. [Related pubchem assays: 1829 (Project Summary), 1814 (Primary HTS)]; format: functional
# [5] = Luminescence Cell-Based Dose Confirmation HTS to Identify Activators of 5'UTR Stem-Loop Driven Alpha-Synuclein mRNA Translation in H4 Neuroglioblastoma Cells. [Related pubchem assays: 1829 (Project Summary), 1814 (Primary HTS)]; format: functional
# [6] = growth suppression of PTEN-null colon cells, dose response, cell-based, HCT116 PTEN knockout (AID 1047); format: functional;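 further: HCT116 colon tumor cells with PTEN knocked out; cells exposed to compound for 60 hours before readout; potency for loss of cell viability measured by luminescence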
# Cytochrome P450 3A4 = Cytochrome P450 3A4 (Homo sapiens, UniProt P08684);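 further: CYP3A4 tested as one member of a cytochrome P450 panel screen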
# Sequence of Cytochrome P450 3A4 (P08684 whole entry): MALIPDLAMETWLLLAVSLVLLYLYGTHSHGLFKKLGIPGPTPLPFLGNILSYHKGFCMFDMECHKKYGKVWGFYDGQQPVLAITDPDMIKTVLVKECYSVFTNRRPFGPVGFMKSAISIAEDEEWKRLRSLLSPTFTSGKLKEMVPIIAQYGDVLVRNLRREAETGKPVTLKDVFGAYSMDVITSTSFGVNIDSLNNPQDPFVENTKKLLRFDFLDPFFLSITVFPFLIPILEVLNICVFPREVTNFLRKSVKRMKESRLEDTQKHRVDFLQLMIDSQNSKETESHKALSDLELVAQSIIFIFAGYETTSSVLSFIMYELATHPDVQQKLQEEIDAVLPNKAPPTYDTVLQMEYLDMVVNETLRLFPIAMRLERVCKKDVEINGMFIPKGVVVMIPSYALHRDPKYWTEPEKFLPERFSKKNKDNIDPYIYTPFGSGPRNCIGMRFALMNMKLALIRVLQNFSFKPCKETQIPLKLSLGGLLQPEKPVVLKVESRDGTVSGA
# [7] = molecular target: T3, Corticotropin-releasing factor receptor 2/Corticotropin-releasing factor-binding protein (Homo sapiens, UniProt P24387+Q13324); assay: activators of CRF receptor 2 with binding protein – uHTS hits, confirmation (AID 602473); format: functional; details: read-out: EC50_Mean
# T3 sequence (Q13324 whole entry): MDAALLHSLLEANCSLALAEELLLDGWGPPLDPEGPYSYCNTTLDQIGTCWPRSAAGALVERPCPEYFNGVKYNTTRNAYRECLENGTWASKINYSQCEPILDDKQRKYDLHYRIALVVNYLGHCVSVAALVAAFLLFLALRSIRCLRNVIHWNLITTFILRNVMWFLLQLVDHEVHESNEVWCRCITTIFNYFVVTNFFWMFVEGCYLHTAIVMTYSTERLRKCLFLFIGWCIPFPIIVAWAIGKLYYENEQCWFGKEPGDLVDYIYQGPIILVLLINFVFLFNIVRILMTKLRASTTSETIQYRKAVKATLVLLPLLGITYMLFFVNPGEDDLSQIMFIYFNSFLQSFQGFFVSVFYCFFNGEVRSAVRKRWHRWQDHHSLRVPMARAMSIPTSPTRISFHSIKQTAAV
# T3 sequence (P24387 whole entry): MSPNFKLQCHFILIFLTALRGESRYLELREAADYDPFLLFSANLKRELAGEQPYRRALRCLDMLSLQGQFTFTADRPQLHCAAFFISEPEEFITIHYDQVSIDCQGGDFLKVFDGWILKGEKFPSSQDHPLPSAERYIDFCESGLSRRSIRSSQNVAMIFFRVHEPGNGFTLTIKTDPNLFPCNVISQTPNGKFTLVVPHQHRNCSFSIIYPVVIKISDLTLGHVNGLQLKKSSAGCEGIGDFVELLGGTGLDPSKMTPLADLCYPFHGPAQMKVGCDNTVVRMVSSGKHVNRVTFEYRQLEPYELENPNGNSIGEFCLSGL
# Cytochrome P450 2C19 = Cytochrome P450 2C19 (Homo sapiens, UniProt P33261); assay: Cytochrome panel assay with activity outcomes. Panel member name: p450-cyp2c19 Compounds with AC50 equal or less than 10 uM are considered active; format: functional; details: read-out: AC50
# Sequence of Cytochrome P450 2C19 (P33261 whole entry): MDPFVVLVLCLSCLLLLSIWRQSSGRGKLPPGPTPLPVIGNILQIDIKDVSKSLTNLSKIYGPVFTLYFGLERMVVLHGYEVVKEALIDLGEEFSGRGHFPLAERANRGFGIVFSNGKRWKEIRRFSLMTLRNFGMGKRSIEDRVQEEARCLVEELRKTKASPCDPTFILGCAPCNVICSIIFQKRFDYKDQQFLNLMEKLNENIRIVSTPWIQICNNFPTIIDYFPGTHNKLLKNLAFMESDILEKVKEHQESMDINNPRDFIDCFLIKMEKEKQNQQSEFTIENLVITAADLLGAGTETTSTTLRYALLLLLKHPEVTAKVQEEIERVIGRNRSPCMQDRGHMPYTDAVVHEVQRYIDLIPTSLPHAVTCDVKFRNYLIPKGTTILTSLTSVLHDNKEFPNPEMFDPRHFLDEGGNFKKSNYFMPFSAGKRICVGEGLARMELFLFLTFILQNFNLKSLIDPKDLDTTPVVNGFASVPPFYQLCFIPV
# [8] = molecular target: T3, Corticotropin-releasing factor receptor 2/Corticotropin-releasing factor-binding protein; assay: Dose Response confirmation of uHTS hits for small molecule antagonists of the CRF-binding protein and CRF-R2 receptor complex.; format: functional; details: read-out: IC50_Mean
# cells [9] = format: functional, cell-based
# cells [10] = format: functional, cell-based; remark: listed apart in the source
# INS1 = assay: beta cell apoptosis inhibitors, cytokine rescue, dose response, luminescence, retest (AID 449756); format: functional, cell-based; details: Rattus norvegicus;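 further: cell death triggered by IL-1 beta plus TNF-alpha plus IFN-gamma mixture; protective hits raise ATP signal compared with cytokine alone wells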
compound,measurement,setting,value
COc1cc(CNc2ccc(N3CCCC3)cc2)ccc1OCc1ccccc1,CC50,[1],13 µM (active)
COc1ccc2c(-c3ccccc3)cc(SCC(N)=O)nc2c1,EC50,[2],> 300 µM (not active)
same,EC50,[3],> 300 µM (not active)
Cn1c2ccccc2c2ncn(CCC3=CCCCC3)c(=O)c21,EC50,H4,29.8 µM (active)
same,EC50,[4],21.7 µM (active)
same,EC50,[5],24 µM (active)
CCOCCCNc1nc2nc3ccc(C)cn3c(=O)c2cc1C(=O)NCC1CCCO1 (centres undefined),EC50,[2],> 300 µM (not active)
same,EC50,[3],> 300 µM (not active)
CC(C)(C)OC(=O)NCCCC1=CC2=CC(=O)C(C)(OC(=O)C3CCCC3)C(=O)C2=CO1 (centres undefined),EC50,[2],18.8 µM (active)
same,EC50,[3],18.7 µM (active)
Cc1cc(C=C2C(=O)c3ccccc3C2=O)c(C)n1-c1ccc(Cl)cc1,EC50,[2],> 300 µM (not active)
same,EC50,[3],> 300 µM (not active)
CN(C)c1nn(C(=O)Nc2cccc(C(F)(F)F)c2)cc1-c1ccccc1,EC50,[6],42.1 µM (active)
O=C(Cn1cc(C=C2C(=O)NC(=O)NC2=O)c2ccccc21)NCC1CCCO1 (centres undefined),EC50,[2],16.7 µM (active)
same,EC50,[3],10.1 µM (active)
O=C(N/N=C\c1ccc(-c2ccc(Cl)c(Cl)c2)o1)C(=O)N1CCCC1,EC50,[2],49.5 µM (active)
same,EC50,[3],29.6 µM (active)
O=C1NC(=O)N(CCNc2ncc(C(F)(F)F)cc2Cl)C(=O)C1/C=N/OCc1c(F)cccc1Cl (centres undefined),AC50,Cytochrome P450 3A4,3.16 µM (inconclusive)
same,EC50,[7],> 53 µM (inactive)
same,AC50,Cytochrome P450 2C19,8.91 µM (inconclusive)
same,IC50,[8],> 47.1 µM (inactive)
O=C(CCCc1ccccc1)Nc1ccccn1,EC50,cells [9],> 350 µM (not active)
same,EC50,cells [10],> 350 µM (not active)
Cc1cccc(-n2c(N)cc(=O)[nH]c2=S)c1,EC50,H4,> 120 µM (not active)
same,EC50,[4],> 120 µM (not active)
same,EC50,[5],> 120 µM (not active)
CC1(C)CC(=O)C2=C(C1)OC(N)=C(C#N)C2c1cc2c(cc1[N+](=O)[O-])OCO2 (centres undefined),EC50,[2],18 µM (active)
same,EC50,[3],14.3 µM (active)
same,EC50,[7],5.48 µM (active)
O=C(Nc1ccc(Cl)cc1)NN1CC(=O)N(c2cccc(C(F)(F)F)c2)CC1=O,EC50,cells [9],> 350 µM (not active)
same,EC50,cells [10],> 350 µM (not active)
O=C(CSCC(=O)N1CCCCC1)Nc1nc(-c2ccc(Cl)s2)cs1,EC50,H4,10.9 µM (active)
same,EC50,[4],8.35 µM (active)
same,EC50,[5],29.7 µM (active)
CCc1nn(CCCC(=O)N2CCN(c3cccc(C)c3C)CC2)c(=O)c2cc3occc3n12,CC50,[1],17 µM (active)
Cc1cc(NC(=O)C(C)C)ncc1NC(=O)CCc1ccccc1,EC50,[7],> 53 µM (inactive)
O=C(CCN1CCCCC1)c1ccc2c(c1)OCO2,EC50,[7],> 53 µM (inactive)
same,IC50,[8],> 47.1 µM (inactive)
Cc1ccc(C(=O)NCc2cccnc2)o1,EC50,[7],> 53 µM (inactive)
same,IC50,[8],> 47.1 µM (inactive)
O=[N+]([O-])c1cccc(-c2cn3nc(-c4ccccc4)c(-c4ccccc4)nc3n2)c1,EC50,[2],> 300 µM (not active)
same,AC50,INS1,11 µM (active)
same,EC50,[3],99 µM (active)
O=C(N[C@@H](Cc1ccccc1)C(=O)OCc1ccccc1)c1[nH]cnc1C(=O)N1CCc2ccccc2C1,CC50,[1],26.1 µM (active)

# — ChEMBL document CHEMBL1201862, “PubChem BioAssay data set” (2004)
